The results in this text go back to US6849596B1, “Regulatory/unfolding peptides of ezrin” (priority 1999, dated 2005).

In experiment [1] the test system is antibody forming cells against sheep erythocytes (SRBC). Put plainly: Antibody forming cells against sheep erythocytes (SRBC) in mice, plaque count. It counts as in vivo. The settings on record: four days after SRBC, thirty mice per data point. As for the experimental part:
Activity of Hepreceptor Peptides Enhancing the Antibody-Dependent Cytotoxic Response in […] to Sheep Red Blood Cells (SRBC) in Mice
The influence of Hepreceptor peptides on the activation of antibody forming cells against sheep erythocytes (SRBC) in Mice (CBA-C57B1 Fi hybrids. 2 months old, weight 18-22 grams) was determined. Mice were first injected intraperitoneally using either 0.5 ml sterile saline as a control or Hepreceptor peptides in the same volume of saline. 30 minutes after the injection of Hepreceptor peptides, a cell suspension containing 5 million SRBC was administered intraperitoneally to each mouse. Four days after the immunisation, the mice were killed by cervical dislocation and the spleens were obtained aseptically. Each spleen was homogenised in 2 ml of Medium 199, then 100 microliters of this suspension was put into 1 ml of prepared agarose in Medium 199 (stored in water bath at 48° C.), SRBC suspension was added, resulting in a final concentration of 1% agarose. The Im1 of agarose-cell mixture was agitated then transferred to petri dish to set. When the agarose became solid, the petri dish was incubated for 1 hour at 37° C. then 0.5 ml of 1-in-20 diluted guinea pig serum in Medium 199 was added on top of agarose gel as a source of complement. The incubation was continued for another 1 hour. The dishes were then visualised using an 8×binocular microscope and the number of plaques counted (each plaque equivalent to one antibody secreting mouse spleen cell). The results were expressed both as the number of antibody secreting cells per one million nucleated spleen cells and the number of antibody secreting cells per whole spleen.
Averaged data (from thirty mice per data point) of the number of antibody forming cells per one million nucleated spleen cells. The data was re-based relative to 100 for each control group.

Experiment [2] has as its system transplanted sarcoma of the uterus SM-322. Put plainly: Transplanted mouse sarcoma SM-322 model. Format: in vivo, CBA mice. The following applies: for Percent decrease in tumour volume relative to control: SM-322. An excerpt:
Anticancer Activity of Hepreceptor Peptides on the Growth of Transplanted Sarcoma of the Uterus SM-322 and on Cancer of the Uterine Cervix CUS-5 Performed in CBA Mice Using Rupe312 and Rupe414 as Examples Transplanted mouse sarcoma SM-322 model (endothelial tumour). Primary tumours of the uterus were induced in female mice using 1.2 dimethylhydrazine. A few primary tumours were transplanted into syngeneic mice. The first visible nodules started to appear at the point of transplation after 4 days. The life expectancy of the mice with transplanted tumours was 22-24 days. […] The tumours were introduced as a 0.5 ml of tumour suspension (1 g tumour per 10 ml of Igla medium) and ten mice used in each treatment group. […] The average percent decrease of tumour volume relative to the control group was recorded at three time points. The longevity of the mice in the treatment groups and control groups was compared and the histology of the tumours between control and treatment groups was compared.

For experiment [3], the system named is HLA Class I on human White Blood Cells. In words: Expression of MHC (HLA) Class I on human White Blood Cells. The following applies: 0.003 micrograms per ml. Format: cell-based. An excerpt:
A cell specific effect of this activation was an increase in the population of monocytes expressing MHC Class I and a decrease in the population of CD8 lymphocytes expressing MHC Class I.

As to “KKRRETVERE (Hepreceptor peptide) [Rupe312]”, the figures for the “number of antibody forming cells per one million nucleated spleen cells, re-based relative to 100 for control” value in experiment [1] (IP injection 1 microgram per mouse) and in experiment [1] (IP injection 10 micrograms per mouse) were 317 and 267, respectively. Moreover, the “Percent decrease in tumour volume relative to control” value in experiment [2] (0.1 Microg/mouse IP twice weekly, Day 8) was 61%; in experiment [2] (0.1 Microg/mouse IP twice weekly, Day 12), 34%; in experiment [2] (0.1 Microg/mouse IP twice weekly, Day 15), 59%; in experiment [2] (1 Microg/mouse IP twice weekly, Day 8), 67%; in experiment [2] (1 Microg/mouse IP twice weekly, Day 12), 32%; in experiment [2] (1 Microg/mouse IP twice weekly, Day 15), 38%. The “Percent decrease in tumour volume relative to control” value in experiment [2] (10 Microg/mouse IP twice weekly, Day 8) is recorded as 63%; in experiment [2] (10 Microg/mouse IP twice weekly, Day 12), 54%; in experiment [2] (10 Microg/mouse IP twice weekly, Day 15) it was 27%. Further, in experiment [2] (both models (SM-322 and CUC-5)), the “histology of the tumours” value is “non bleeding ulcerous destruction of the centre of tumours”. In addition, the “relative activity in lowering intensity of HLA expression on WBC” value in experiment [3] (24 hours) is given as “more active than Rupe 414”. Besides, the “Density of cell surface expression of HLA Class I, rebased to 100 for control” value in experiment [3] (B and NK cells, 24 hours) was 73; in experiment [3] (CD4 lymphocytes, 24 hours) it was 70; in experiment [3] (CD8 lymphocytes, 24 hours), 72; in experiment [3] (Granulocytes, 24 hours), 81; in experiment [3] (Monocytes/Macrophages, 24 hours at 37° C.), 71. Besides, the “Percentage of cell population expressing HLA Class I, rebased to 100 for control” value turned out to be 105 in experiment [3] (B and NK cells, 24 hours); 104 in experiment [3] (CD4 lymphocytes, 24 hours); 85 in experiment [3] (CD8 lymphocytes, 24 hours); 98 in experiment [3] (Granulocytes, 24 hours); 119 in experiment [3] (Monocytes/Macrophages, 24 hours).
